Assay results reported in ChEMBL document CHEMBL1201862, “PubChem BioAssay data set” (2004).
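A five-concentration, 48-hour dose response in 96-well plates underlies each endpoint, interpolated linearly between surrounding concentrations. Here, GI50 denotes the concentration required for 50% inhibition of growth.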 Activity calls are given as the source filed them. Rule as the data show it: active = GI50 up to about 1.1 µM and inactive = higher.

Tests used:
Test in all cases: NCI tumour cell line growth inhibition, 48 h
A549 = system: A549
OVCAR-8 = system: OVCAR-8
K562 = system: K562
U-251 = system: U-251
CAKI-1 = system: CAKI-1
SW-620 = system: SW-620
TK-10 = system: TK-10
SK-OV-3 = system: SK-OV-3
M14 = system: M14
CCRF-CEM = system: CCRF-CEM
A498 = system: A498
NCI-H460 = system: NCI-H460
ACHN = system: ACHN
MOLT-4 = system: MOLT-4
EKVX = system: EKVX
NCI-H226 = system: NCI-H226
LOX IMVI = system: LOX IMVI
SNB-75 = system: SNB-75

Measured: GI50

CC1=NN(C(=O)c2ccc(Cl)cc2)C(=O)/C1=C/c1cccc(O)c1
inactive: A549 > 100 µM | OVCAR-8 > 100 µM | K562 > 100 µM | U-251 > 100 µM | CAKI-1 > 100 µM | SW-620 > 100 µM | TK-10 > 100 µM | SK-OV-3 > 100 µM | M14 > 100 µM | CCRF-CEM > 100 µM | A498 > 100 µM | NCI-H460 > 100 µM | ACHN > 100 µM | MOLT-4 > 100 µM | EKVX > 100 µM | NCI-H226 > 100 µM | LOX IMVI > 100 µM

COc1ccc(S(=O)(=O)N/N=C(\C)CN2C(=O)c3ccccc3C2=O)cc1OC
inactive: A549 > 100 µM | OVCAR-8 > 100 µM | K562 > 100 µM | U-251 > 100 µM | CAKI-1 > 100 µM | SW-620 > 100 µM | TK-10 > 100 µM | SK-OV-3 > 100 µM | M14 > 100 µM | CCRF-CEM > 100 µM | A498 > 100 µM | SNB-75 > 100 µM | NCI-H460 > 100 µM | ACHN > 100 µM | MOLT-4 > 100 µM | EKVX > 100 µM | NCI-H226 > 100 µM

S=c1c2ccccc2c(=S)n2n1CC=CC2
inactive: A549 > 100 µM | OVCAR-8 > 100 µM | K562 > 100 µM | U-251 > 100 µM | CAKI-1 > 100 µM | SW-620 > 100 µM | TK-10 > 100 µM | SK-OV-3 > 100 µM | M14 > 100 µM | CCRF-CEM > 100 µM | A498 76.2 µM | SNB-75 68.1 µM | ACHN > 100 µM | MOLT-4 > 100 µM | EKVX > 100 µM | NCI-H226 > 100 µM | LOX IMVI > 100 µM

N#CC1CCCCC1NC1(C#N)CCCCC1 (configuration not stated)
inactive: A549 > 100 µM | OVCAR-8 > 100 µM | K562 > 100 µM | U-251 > 100 µM | CAKI-1 > 100 µM | SW-620 > 100 µM | TK-10 > 100 µM | SK-OV-3 > 100 µM | M14 > 100 µM | CCRF-CEM > 100 µM | A498 > 100 µM | SNB-75 > 100 µM | MOLT-4 > 100 µM | EKVX > 100 µM | NCI-H226 > 100 µM | LOX IMVI > 100 µM

CC(NS(=O)(=O)c1ccc(Cl)cc1)C(=O)O (configuration not stated)
inactive: A549 > 100 µM | OVCAR-8 > 100 µM | K562 > 100 µM | U-251 > 100 µM | CAKI-1 > 100 µM | SW-620 > 100 µM | TK-10 > 100 µM | SK-OV-3 > 100 µM | M14 > 100 µM | CCRF-CEM > 100 µM | A498 > 100 µM | SNB-75 > 100 µM | NCI-H460 > 100 µM | ACHN > 100 µM | MOLT-4 > 100 µM | EKVX > 100 µM | LOX IMVI > 100 µM

NC(=O)COc1ccc(Br)cc1Br
inactive: A549 > 100 µM | OVCAR-8 > 100 µM | K562 > 100 µM | U-251 > 100 µM | CAKI-1 > 100 µM | SW-620 > 100 µM | SK-OV-3 > 100 µM | M14 > 100 µM | A498 > 100 µM | SNB-75 52.1 µM | NCI-H460 > 100 µM | ACHN > 100 µM | MOLT-4 > 100 µM | EKVX 29.2 µM | NCI-H226 > 100 µM

Cc1ccc2nc3c(C(=O)NCCN(C)C)cccc3nc2c1
inactive: A549 4.61 µM | OVCAR-8 3.48 µM | K562 2.47 µM | U-251 5.55 µM | SW-620 1.92 µM | TK-10 3.73 µM | SK-OV-3 14.8 µM | M14 5.12 µM | A498 2.47 µM | SNB-75 5.48 µM | ACHN 1.91 µM | MOLT-4 1.64 µM | EKVX 5.65 µM | NCI-H226 2.59 µM | LOX IMVI 1.82 µM

CC#CC1/C(=C\C(=O)OC)CCCC1O (configuration not stated)
inactive: A549 > 100 µM | OVCAR-8 > 100 µM | K562 > 100 µM | U-251 > 100 µM | CAKI-1 > 100 µM | SW-620 > 100 µM | TK-10 > 100 µM | SK-OV-3 > 100 µM | M14 > 100 µM | CCRF-CEM > 100 µM | A498 > 100 µM | SNB-75 > 100 µM | NCI-H460 > 100 µM | ACHN > 100 µM | MOLT-4 > 100 µM | EKVX > 100 µM | NCI-H226 > 100 µM

CSc1ccc2c(cc1=O)[C@@H](NC(=O)c1cc(O)c(O)c(O)c1)CCc1cc(O)c(O)c(O)c1-2
inactive: A549 27.7 µM | OVCAR-8 24 µM | K562 3.8 µM | U-251 18.6 µM | SW-620 17.1 µM | TK-10 41.6 µM | SK-OV-3 > 100 µM | M14 19.6 µM | CCRF-CEM 3.33 µM | A498 > 100 µM | SNB-75 23.4 µM | NCI-H460 20 µM | ACHN 34.1 µM | MOLT-4 18.5 µM | EKVX 23.2 µM | NCI-H226 16 µM
